# Assay results as given in PubChem BioAssay (NCI).
#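 Assay format: 96-well plates, 48-hour exposure. TGI marks complete inhibition of growth.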
# Assays:
# Experiment in all cases: inhibition of tumour cell growth, NCI panel, 48 h
# MCF7 breast = system: MCF7 breast
# NCI-H460 lung = system: NCI-H460 lung
# HOP-62 NSCLC = system: HOP-62 NSCLC
# K-562 leukemia = system: K-562 leukemia
# SK-MEL-28 melanoma = system: SK-MEL-28 melanoma
# SR leukemia = system: SR leukemia
# OVCAR-8 ovarian = system: OVCAR-8 ovarian
# M14 melanoma = system: M14 melanoma
# COLO 205 colon = system: COLO 205 colon
# UACC-62 melanoma = system: UACC-62 melanoma
# 786-0 renal = system: 786-0 renal
# BT-549 breast = system: BT-549 breast
# SW-620 colon = system: SW-620 colon
# RXF 393 renal = system: RXF 393 renal
# HOP-92 NSCLC = system: HOP-92 NSCLC
# SK-OV-3 ovarian = system: SK-OV-3 ovarian
# UO-31 renal = system: UO-31 renal
# KM12 colon = system: KM12 colon
# SNB-75 CNS = system: SNB-75 CNS
# A549 NSCLC = system: A549 NSCLC
# CAKI-1 renal = system: CAKI-1 renal
# NCI-H226 lung = system: NCI-H226 lung
# SNB-19 CNS = system: SNB-19 CNS
# HCT-116 colon = system: HCT-116 colon
# MDA-MB-435 = system: MDA-MB-435
# PC-3 prostate = system: PC-3 prostate
# IGROV1 ovarian = system: IGROV1 ovarian
# MDA-MB-231 breast = system: MDA-MB-231 breast
# SF-295 CNS = system: SF-295 CNS
# OVCAR-5 ovarian = system: OVCAR-5 ovarian
# SF-268 CNS = system: SF-268 CNS
# HCC-2998 colon = system: HCC-2998 colon
# NCI-H23 lung = system: NCI-H23 lung
# OVCAR-4 ovarian = system: OVCAR-4 ovarian
# CCRF-CEM leukemia = system: CCRF-CEM leukemia
# MDA-N = system: MDA-N
# HS 578T breast = system: HS 578T breast
# UACC-257 melanoma = system: UACC-257 melanoma
# TK-10 renal = system: TK-10 renal
# OVCAR-3 ovarian = system: OVCAR-3 ovarian
# EKVX NSCLC = system: EKVX NSCLC
# NCI-H522 lung = system: NCI-H522 lung
# HL-60(TB) leukemia = system: HL-60(TB) leukemia
# DU-145 prostate = system: DU-145 prostate
# ACHN renal = system: ACHN renal
# SF-539 CNS = system: SF-539 CNS
# SN12C renal = system: SN12C renal
# HT29 colon = system: HT29 colon
# T-47D breast = system: T-47D breast
# SK-MEL-5 melanoma = system: SK-MEL-5 melanoma
# U251 CNS = system: U251 CNS
# A498 renal = system: A498 renal
# MOLT-4 leukemia = system: MOLT-4 leukemia
# MALME-3M melanoma = system: MALME-3M melanoma
# LOX IMVI melanoma = system: LOX IMVI melanoma
# SK-MEL-2 melanoma = system: SK-MEL-2 melanoma
# NCI/ADR-RES ovarian = system: NCI/ADR-RES ovarian
# RPMI-8226 leukemia = system: RPMI-8226 leukemia
# HCT-15 colon = system: HCT-15 colon
smiles,measurement,setting,value
CCCCCCCC(CC(=O)NC(CO)C(=O)NC(CO)CC(C)C)OC(=O)CC(CCCCCCC)OC(=O)CC(CCCCCCC)OC1OC(C)C(O)C(OC2OC(C)C(OC(C)=O)C(O)C2O)C1O (centres undefined),TGI,MCF7 breast,23.8 µM
same,TGI,NCI-H460 lung,15.6 µM
same,TGI,HOP-62 NSCLC,31.2 µM
same,TGI,K-562 leukemia,34.3 µM
same,TGI,SK-MEL-28 melanoma,19.4 µM
same,TGI,SR leukemia,6.22 µM
same,TGI,OVCAR-8 ovarian,23.3 µM
same,TGI,M14 melanoma,13.8 µM
same,TGI,COLO 205 colon,9.14 µM
same,TGI,UACC-62 melanoma,19 µM
same,TGI,786-0 renal,18.5 µM
same,TGI,BT-549 breast,19.6 µM
same,TGI,SW-620 colon,23.3 µM
same,TGI,RXF 393 renal,16.9 µM
same,TGI,HOP-92 NSCLC,21 µM
same,TGI,SK-OV-3 ovarian,29.8 µM
same,TGI,UO-31 renal,28.8 µM
same,TGI,KM12 colon,14.3 µM
same,TGI,SNB-75 CNS,16.3 µM
same,TGI,A549 NSCLC,23.8 µM
same,TGI,CAKI-1 renal,29 µM
same,TGI,NCI-H226 lung,35.5 µM
same,TGI,SNB-19 CNS,18.3 µM
same,TGI,HCT-116 colon,17.9 µM
same,TGI,MDA-MB-435,19.4 µM
same,TGI,PC-3 prostate,16.2 µM
same,TGI,IGROV1 ovarian,22.5 µM
same,TGI,MDA-MB-231 breast,20.4 µM
same,TGI,SF-295 CNS,24.3 µM
same,TGI,OVCAR-5 ovarian,21.7 µM
same,TGI,SF-268 CNS,23.3 µM
same,TGI,HCC-2998 colon,17.2 µM
same,TGI,NCI-H23 lung,22 µM
same,TGI,OVCAR-4 ovarian,19.4 µM
same,TGI,CCRF-CEM leukemia,14.2 µM
same,TGI,MDA-N,14 µM
same,TGI,HS 578T breast,18.7 µM
same,TGI,UACC-257 melanoma,12 µM
same,TGI,TK-10 renal,29.8 µM
same,TGI,OVCAR-3 ovarian,24.2 µM
same,TGI,EKVX NSCLC,28.2 µM
same,TGI,NCI-H522 lung,24.7 µM
same,TGI,HL-60(TB) leukemia,9.2 µM
same,TGI,DU-145 prostate,24 µM
same,TGI,ACHN renal,29.2 µM
same,TGI,SF-539 CNS,23.4 µM
same,TGI,SN12C renal,18.6 µM
same,TGI,HT29 colon,13 µM
same,TGI,T-47D breast,23.1 µM
same,TGI,SK-MEL-5 melanoma,21.8 µM
same,TGI,U251 CNS,14.7 µM
same,TGI,A498 renal,23.5 µM
same,TGI,MOLT-4 leukemia,12.2 µM
same,TGI,MALME-3M melanoma,23.9 µM
C=CCCON(C(=O)OC(C)(C)C)c1ccccc1,TGI,NCI-H460 lung,> 100 µM
same,TGI,HOP-62 NSCLC,> 100 µM
same,TGI,K-562 leukemia,> 100 µM
same,TGI,SK-MEL-28 melanoma,> 100 µM
same,TGI,OVCAR-8 ovarian,> 100 µM
same,TGI,M14 melanoma,> 100 µM
same,TGI,LOX IMVI melanoma,> 100 µM
same,TGI,COLO 205 colon,> 100 µM
same,TGI,UACC-62 melanoma,> 100 µM
same,TGI,786-0 renal,> 100 µM
same,TGI,BT-549 breast,> 100 µM
same,TGI,SW-620 colon,> 100 µM
same,TGI,RXF 393 renal,> 100 µM
same,TGI,HOP-92 NSCLC,> 100 µM
same,TGI,SK-OV-3 ovarian,> 100 µM
same,TGI,UO-31 renal,> 100 µM
same,TGI,KM12 colon,> 100 µM
same,TGI,SNB-75 CNS,> 100 µM
same,TGI,A549 NSCLC,> 100 µM
same,TGI,CAKI-1 renal,> 100 µM
same,TGI,NCI-H226 lung,> 100 µM
same,TGI,SNB-19 CNS,> 100 µM
same,TGI,HCT-116 colon,> 100 µM
same,TGI,MDA-MB-435,> 100 µM
same,TGI,SK-MEL-2 melanoma,> 100 µM
same,TGI,PC-3 prostate,> 100 µM
same,TGI,IGROV1 ovarian,> 100 µM
same,TGI,MDA-MB-231 breast,> 100 µM
same,TGI,SF-295 CNS,> 100 µM
same,TGI,OVCAR-5 ovarian,> 100 µM
same,TGI,SF-268 CNS,> 100 µM
same,TGI,NCI-H23 lung,> 100 µM
same,TGI,CCRF-CEM leukemia,> 100 µM
same,TGI,MDA-N,> 100 µM
same,TGI,HS 578T breast,> 100 µM
same,TGI,UACC-257 melanoma,> 100 µM
same,TGI,TK-10 renal,> 100 µM
same,TGI,OVCAR-3 ovarian,> 100 µM
same,TGI,EKVX NSCLC,> 100 µM
same,TGI,NCI-H522 lung,> 100 µM
same,TGI,HL-60(TB) leukemia,> 100 µM
same,TGI,DU-145 prostate,> 100 µM
same,TGI,ACHN renal,> 100 µM
same,TGI,SF-539 CNS,> 100 µM
same,TGI,SN12C renal,> 100 µM
same,TGI,HT29 colon,> 100 µM
same,TGI,T-47D breast,> 100 µM
same,TGI,NCI/ADR-RES ovarian,> 100 µM
same,TGI,RPMI-8226 leukemia,> 100 µM
same,TGI,SK-MEL-5 melanoma,> 100 µM
same,TGI,U251 CNS,> 100 µM
same,TGI,A498 renal,> 100 µM
same,TGI,MOLT-4 leukemia,> 100 µM
same,TGI,MALME-3M melanoma,> 100 µM
same,TGI,HCT-15 colon,> 100 µM
